Source: PMC10238656 (Cancer discovery, 2023)
“And” between values parts separate entries of the source, which are not always exact repeats. Equal values may be shown once. Read-outs that look alike come from different tables or passages of the source. Blank lines part the entries; values can stand above or below the compound they belong to.

Assays:
[1] = molecular target: full-length recombinant KDM5A (Homo sapiens, UniProt P29375); experiment: KDM5A enzyme kinetic assay; assay type: biochemical
full-length recombinant KDM5A, sequence (P29375 whole entry): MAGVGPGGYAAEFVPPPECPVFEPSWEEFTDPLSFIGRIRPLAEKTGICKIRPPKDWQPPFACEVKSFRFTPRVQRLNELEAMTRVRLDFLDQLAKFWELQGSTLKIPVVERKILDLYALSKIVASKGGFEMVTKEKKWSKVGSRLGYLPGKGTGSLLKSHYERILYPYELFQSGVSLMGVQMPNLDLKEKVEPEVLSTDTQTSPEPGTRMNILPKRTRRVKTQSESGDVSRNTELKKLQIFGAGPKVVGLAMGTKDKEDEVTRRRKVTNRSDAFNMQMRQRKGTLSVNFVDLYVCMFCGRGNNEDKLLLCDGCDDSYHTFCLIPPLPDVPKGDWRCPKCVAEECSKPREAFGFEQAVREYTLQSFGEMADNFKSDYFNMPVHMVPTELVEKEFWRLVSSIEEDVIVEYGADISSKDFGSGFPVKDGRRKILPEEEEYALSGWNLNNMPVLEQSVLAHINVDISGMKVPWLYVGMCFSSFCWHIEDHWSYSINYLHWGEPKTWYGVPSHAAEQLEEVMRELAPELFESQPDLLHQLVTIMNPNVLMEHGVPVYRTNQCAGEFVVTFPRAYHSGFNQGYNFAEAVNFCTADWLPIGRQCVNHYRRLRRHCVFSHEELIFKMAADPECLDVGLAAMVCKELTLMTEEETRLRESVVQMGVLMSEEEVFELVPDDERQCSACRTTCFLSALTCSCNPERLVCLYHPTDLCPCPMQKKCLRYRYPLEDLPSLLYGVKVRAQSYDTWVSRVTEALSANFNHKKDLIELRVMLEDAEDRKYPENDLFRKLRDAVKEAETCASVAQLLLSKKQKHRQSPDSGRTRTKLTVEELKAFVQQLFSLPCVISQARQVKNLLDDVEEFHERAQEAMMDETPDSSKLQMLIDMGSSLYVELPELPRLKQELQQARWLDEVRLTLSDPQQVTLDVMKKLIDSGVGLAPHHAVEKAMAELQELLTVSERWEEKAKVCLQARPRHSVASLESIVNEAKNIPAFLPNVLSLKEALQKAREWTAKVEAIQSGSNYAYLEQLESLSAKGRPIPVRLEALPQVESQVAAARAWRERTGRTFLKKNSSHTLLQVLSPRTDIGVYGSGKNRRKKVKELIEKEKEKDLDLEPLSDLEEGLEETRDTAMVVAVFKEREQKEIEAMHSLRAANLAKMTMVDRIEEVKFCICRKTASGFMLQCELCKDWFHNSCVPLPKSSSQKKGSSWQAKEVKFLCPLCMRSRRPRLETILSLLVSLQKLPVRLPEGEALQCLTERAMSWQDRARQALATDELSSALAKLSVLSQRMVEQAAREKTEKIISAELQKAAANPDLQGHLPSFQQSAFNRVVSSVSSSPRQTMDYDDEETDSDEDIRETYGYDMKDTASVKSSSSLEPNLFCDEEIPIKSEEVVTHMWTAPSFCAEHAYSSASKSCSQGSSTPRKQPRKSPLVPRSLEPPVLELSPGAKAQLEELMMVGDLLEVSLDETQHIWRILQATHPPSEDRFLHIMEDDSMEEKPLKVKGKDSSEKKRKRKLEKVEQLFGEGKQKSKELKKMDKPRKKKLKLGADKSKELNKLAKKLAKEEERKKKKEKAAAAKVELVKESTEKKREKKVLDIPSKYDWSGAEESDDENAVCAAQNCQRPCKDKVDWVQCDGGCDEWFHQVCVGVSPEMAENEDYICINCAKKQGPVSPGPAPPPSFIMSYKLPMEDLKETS

[2] = molecular target: full-length recombinant KDM5C (Homo sapiens, UniProt P41229); experiment: KDM5C enzyme kinetic assay; assay type: biochemical
full-length recombinant KDM5C, sequence (P41229 whole entry): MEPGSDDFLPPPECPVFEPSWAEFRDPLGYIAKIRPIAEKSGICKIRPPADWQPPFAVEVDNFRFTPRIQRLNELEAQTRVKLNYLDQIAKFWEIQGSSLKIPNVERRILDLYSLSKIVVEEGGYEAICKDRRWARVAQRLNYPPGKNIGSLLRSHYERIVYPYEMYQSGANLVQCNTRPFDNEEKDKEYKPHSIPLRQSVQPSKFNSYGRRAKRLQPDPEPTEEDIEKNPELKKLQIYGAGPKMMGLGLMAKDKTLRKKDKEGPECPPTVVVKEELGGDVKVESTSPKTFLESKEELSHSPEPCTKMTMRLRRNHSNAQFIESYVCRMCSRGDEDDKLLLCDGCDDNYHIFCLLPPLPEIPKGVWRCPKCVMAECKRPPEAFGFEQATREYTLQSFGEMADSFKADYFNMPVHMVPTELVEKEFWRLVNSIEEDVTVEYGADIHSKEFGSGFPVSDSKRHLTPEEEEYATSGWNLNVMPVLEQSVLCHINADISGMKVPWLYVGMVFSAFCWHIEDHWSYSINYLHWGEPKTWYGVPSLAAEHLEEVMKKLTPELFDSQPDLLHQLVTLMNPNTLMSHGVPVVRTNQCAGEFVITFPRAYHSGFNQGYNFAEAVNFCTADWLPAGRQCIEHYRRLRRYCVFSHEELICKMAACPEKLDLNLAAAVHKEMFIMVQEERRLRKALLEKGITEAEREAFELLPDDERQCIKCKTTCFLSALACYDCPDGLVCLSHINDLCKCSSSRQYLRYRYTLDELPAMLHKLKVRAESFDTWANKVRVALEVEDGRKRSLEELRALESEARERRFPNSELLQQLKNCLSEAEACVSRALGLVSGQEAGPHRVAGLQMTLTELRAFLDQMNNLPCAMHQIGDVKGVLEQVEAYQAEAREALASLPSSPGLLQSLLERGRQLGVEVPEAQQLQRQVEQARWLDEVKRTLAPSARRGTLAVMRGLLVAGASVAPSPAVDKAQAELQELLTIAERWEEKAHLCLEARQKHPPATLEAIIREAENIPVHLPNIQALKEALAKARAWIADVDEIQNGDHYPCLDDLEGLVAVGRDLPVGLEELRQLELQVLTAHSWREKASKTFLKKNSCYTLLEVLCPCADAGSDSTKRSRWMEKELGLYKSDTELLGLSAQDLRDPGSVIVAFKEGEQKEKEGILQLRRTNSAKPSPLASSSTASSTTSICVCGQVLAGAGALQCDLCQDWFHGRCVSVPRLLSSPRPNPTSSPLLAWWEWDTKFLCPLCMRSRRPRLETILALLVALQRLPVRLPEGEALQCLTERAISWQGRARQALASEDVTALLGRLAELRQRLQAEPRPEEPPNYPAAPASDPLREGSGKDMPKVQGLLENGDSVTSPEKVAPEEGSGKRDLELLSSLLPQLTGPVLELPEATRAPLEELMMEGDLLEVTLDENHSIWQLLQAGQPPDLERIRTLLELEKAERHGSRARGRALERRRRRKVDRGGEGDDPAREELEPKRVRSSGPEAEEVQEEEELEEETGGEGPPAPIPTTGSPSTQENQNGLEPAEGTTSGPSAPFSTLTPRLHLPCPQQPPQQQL

[3] = molecular target: full-length recombinant KDM5D (Homo sapiens, UniProt Q9BY66)
full-length recombinant KDM5D, sequence (Q9BY66 whole entry): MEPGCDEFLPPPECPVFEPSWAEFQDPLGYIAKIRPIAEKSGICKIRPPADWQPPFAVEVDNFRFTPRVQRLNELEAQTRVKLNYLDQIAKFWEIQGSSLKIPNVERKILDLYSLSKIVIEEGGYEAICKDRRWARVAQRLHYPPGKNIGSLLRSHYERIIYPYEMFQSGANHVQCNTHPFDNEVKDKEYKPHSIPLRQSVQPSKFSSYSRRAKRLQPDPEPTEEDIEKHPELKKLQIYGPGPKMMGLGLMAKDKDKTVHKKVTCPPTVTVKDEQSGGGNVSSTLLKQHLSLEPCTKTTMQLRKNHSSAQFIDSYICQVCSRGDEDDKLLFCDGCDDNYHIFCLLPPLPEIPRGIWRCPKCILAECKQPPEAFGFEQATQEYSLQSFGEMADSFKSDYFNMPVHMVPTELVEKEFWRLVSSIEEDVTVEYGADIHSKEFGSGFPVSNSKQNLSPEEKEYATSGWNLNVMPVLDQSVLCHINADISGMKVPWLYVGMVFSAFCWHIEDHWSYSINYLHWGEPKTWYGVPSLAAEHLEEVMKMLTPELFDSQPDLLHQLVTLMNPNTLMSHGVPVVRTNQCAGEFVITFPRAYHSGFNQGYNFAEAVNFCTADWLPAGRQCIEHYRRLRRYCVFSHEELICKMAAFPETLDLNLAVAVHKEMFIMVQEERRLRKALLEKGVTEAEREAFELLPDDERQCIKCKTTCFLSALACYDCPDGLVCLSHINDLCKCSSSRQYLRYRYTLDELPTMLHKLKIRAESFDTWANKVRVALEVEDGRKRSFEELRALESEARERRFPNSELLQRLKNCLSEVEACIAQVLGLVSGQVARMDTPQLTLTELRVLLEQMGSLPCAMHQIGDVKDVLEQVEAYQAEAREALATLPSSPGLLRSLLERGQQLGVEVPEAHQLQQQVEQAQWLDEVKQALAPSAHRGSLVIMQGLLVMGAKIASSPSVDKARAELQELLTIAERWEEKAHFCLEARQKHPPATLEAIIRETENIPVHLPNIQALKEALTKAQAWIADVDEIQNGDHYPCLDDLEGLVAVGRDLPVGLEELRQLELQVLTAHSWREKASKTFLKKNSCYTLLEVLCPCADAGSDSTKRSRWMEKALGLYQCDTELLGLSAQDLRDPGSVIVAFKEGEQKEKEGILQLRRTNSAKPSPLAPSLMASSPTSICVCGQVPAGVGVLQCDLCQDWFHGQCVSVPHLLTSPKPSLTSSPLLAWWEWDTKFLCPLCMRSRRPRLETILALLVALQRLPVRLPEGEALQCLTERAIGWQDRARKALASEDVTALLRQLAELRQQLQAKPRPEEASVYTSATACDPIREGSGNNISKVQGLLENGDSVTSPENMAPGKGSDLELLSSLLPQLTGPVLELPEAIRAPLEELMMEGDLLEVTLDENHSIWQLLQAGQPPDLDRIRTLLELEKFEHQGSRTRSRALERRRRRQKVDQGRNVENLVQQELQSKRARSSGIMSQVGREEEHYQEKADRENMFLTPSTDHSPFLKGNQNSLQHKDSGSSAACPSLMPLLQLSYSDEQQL

KDM5B = conditions: cited from earlier work
TET2 = conditions: cited from earlier work
KDM5A^F68L = KDM5A^F68L (Homo sapiens, UniProt P29375, F68L); assay type: biochemical
KDM5A^F68L, sequence (P29375 whole entry F68L): as the sequence (P29375 whole entry) above, with F68L counted along it

KDM5A^R429I = KDM5A^R429I (Homo sapiens, UniProt P29375, R429I); assay type: biochemical
KDM5A^R429I, sequence (P29375 whole entry R429I): as the sequence (P29375 whole entry) above, with R429I counted along it

[4] = test system: global 5hmC levels in TF-1 cells; experiment: Total 5hmC content by LC-MS; assay type: cell-based, human; conditions: 21 days in the presence of KDM5c70, day 0 of cytokine withdrawal
TF-1 cells = experiment: TF-1 cytokine-withdrawal assay; assay type: cell-based, human; conditions: parental TF-1 cells passaged 21 days in the presence of KDM5c70
[5] = test system: global H3K4 trimethylation in TF-1 cells; experiment: Immunoblot analysis of global trimethyl-H3K4; assay type: cell-based, human; conditions: 50 nM KDM5c70, 21 days, vs DMSO-treated TF-1 cells
[6] = test system: trimethyl-H3K4 at sites differentially marked in TF1-IDH1^R132H cells, TF-1 cells; experiment: Trimethyl-H3K4 ChIP-seq; assay type: cell-based, human; conditions: KDM5c70-treated TF-1 cells vs DMSO
IHA cells = experiment: Soft agar colony-forming assay; assay type: cell-based, human; conditions: 50 nM KDM5c70, IHA cells passaged 7 times in the presence of KDM5c70
TF1-IDH1^R132H cells [7] = experiment: Proliferation under cytokine-rich conditions; assay type: cell-based, human; conditions: doses up to 100 nM, cytokine-rich media
control TF-1 cells = experiment: Proliferation under cytokine-rich conditions; assay type: cell-based, human; conditions: doses up to 100 nM, cytokine-rich media
TF1-IDH1^R132H cells [8] = experiment: Cytokine-withdrawal assay of mutant IDH-transformed TF-1 cells; assay type: cell-based, human
TF1-shTET2 cells = experiment: Cytokine-withdrawal assay of TET2-knockdown TF-1 cells; assay type: cell-based, human; conditions: pre-treatment for two weeks prior to cytokine withdrawal
[9] = read-out: 2OG Km, mean ± SD of 3 to 7 assays, 50 mM Tris-HCl pH 7.5, 37 °C
[10] = read-out: (R)-2HG IC50, fourfold 2OG concentration relative to 2OG Km
[11] = read-out: (S)-2HG IC50, fourfold 2OG concentration relative to 2OG Km

SMILES: O=C(O)CCC(=O)C(=O)O [2OG, 2-oxoglutarate]
Km ([1]; read-out: 2OG Km, mean ± SD of 3 to 7 assays, 50 mM MES pH 6.5, 37 °C): 4.5 ± 0.3 µM
Km [2, 9]: 2.7 ± 0.4 µM
Km [3, 9]: 4.3 ± 1.5 µM
Km (KDM5B; read-out: 2OG Km): 10 ± 2 µM
Km (TET2; read-out: 2OG Km): 55 ± 20 µM

IC50 [1, 10]: 930 ± 200 µM
IC50 [2, 10]: 670 ± 100 µM
IC50 [3, 10]: 800 ± 190 µM
SMILES: O=C(O)CC[C@@H](O)C(=O)O [(R)-2HG, (R)-2-hydroxyglutarate]
sensitivity to inhibition by (R)-2HG compared with wild-type KDM5A (KDM5A^F68L): similarly sensitive to inhibition by (R)-2HG
sensitivity to inhibition by (R)-2HG compared with wild-type KDM5A (KDM5A^R429I): similarly sensitive to inhibition by (R)-2HG
IC50 (TET2; read-out: (R)-2HG IC50): ~5000 µM and 5000 µM

inhibition of KDM5A (in words) [1]: potently inhibited
IC50 [1, 11]: 150 ± 100 µM
inhibition of KDM5C (in words) [2]: potently inhibited
IC50 [2, 11]: 200 ± 10 µM
inhibition of KDM5D (in words) [3]: potently inhibited
IC50 [3, 11]: 310 ± 30 µM
SMILES: O=C(O)CC[C@H](O)C(=O)O [(S)-2HG]
IC50 (TET2; read-out: (S)-2HG IC50): 1600 µM

SMILES: CCOC(=O)c1ccnc(CNCC(=O)N(CC)CCN(C)C)c1 [KDM5c70]
effect on global 5hmC levels [4]: neither KDM5A/C/D triple knockout nor treatment with KDM5c70 had a significant effect
induction of TF-1 cytokine independence (TF-1 cells): sufficient to induce TF-1 cytokine independence
effect on global trimethyl-H3K4 levels (western blot) [5]: increased global levels of trimethyl-H3K4
trimethyl-H3K4 ChIP-seq signal at sites enriched in TF1-IDH1^R132H cells [6]: trimethyl-H3K4-rich regions were enriched
soft agar colony formation (IHA cells): sufficient to induce soft agar colony formation

SMILES: CC(C)N(C(=O)c1cc(F)ccc1Oc1cncnc1N1CC2(CCN(CC3CCC(NS(C)(=O)=O)CC3)CC2)C1)C(C)C (centres unmarked) [VTP50469]
effect on cytokine-dependent proliferation (TF1-IDH1^R132H cells [7]): no effect
effect on cytokine-dependent proliferation (control TF-1 cells): no effect
effect on cytokine independence (TF1-IDH1^R132H cells [8]; pre-treatment for two weeks prior to cytokine withdrawal): did inhibit TF1-IDH1^R132H cytokine independence in a dose-dependent manner
effect on cytokine independence (TF1-IDH1^R132H cells [8]; treatment started on day 0 of cytokine withdrawal): no effect
effect on cytokine independent proliferation (TF1-shTET2 cells): inhibited the cytokine independent proliferation of TF1-shTET2 cells to a similar extent as TF1-IDH1^R132H cells
